Reference: BindingDB's records for patent US10011627 (Youngene Therapeutics, 2018)

Key:
[1] = target: T1, Sodium/glucose cotransporter 1 (Homo sapiens, UniProt P13866); experiment: Inhibitory Activity Assay
T1 sequence (P13866 whole entry): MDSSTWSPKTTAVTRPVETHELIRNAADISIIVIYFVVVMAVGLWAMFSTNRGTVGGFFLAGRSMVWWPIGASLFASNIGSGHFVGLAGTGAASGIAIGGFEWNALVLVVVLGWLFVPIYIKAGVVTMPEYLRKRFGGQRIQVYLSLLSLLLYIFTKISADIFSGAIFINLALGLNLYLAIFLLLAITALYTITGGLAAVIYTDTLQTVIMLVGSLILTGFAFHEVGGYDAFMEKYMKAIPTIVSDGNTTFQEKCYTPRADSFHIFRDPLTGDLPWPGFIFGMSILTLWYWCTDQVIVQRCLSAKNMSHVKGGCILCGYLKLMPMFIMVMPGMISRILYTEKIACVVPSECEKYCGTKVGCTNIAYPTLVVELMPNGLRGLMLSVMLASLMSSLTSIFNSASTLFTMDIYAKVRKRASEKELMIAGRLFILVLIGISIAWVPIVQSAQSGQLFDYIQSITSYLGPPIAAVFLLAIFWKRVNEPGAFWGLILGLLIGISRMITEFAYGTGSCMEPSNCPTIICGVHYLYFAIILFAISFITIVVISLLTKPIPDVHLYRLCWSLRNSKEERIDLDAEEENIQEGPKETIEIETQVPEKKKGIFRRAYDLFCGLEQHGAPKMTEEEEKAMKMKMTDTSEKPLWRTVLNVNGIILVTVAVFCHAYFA
Method: (§1) The following method was used to determine the inhibitory activity of the compounds of the present invention on SGLT1 and SGLT2. The experimental method is summarized as follows:SGLT1 and SGLT2 transiently transferred HEK293 cells were seeded in a 96-well plate. The density of the cells was 1-1.5×104. The cells were cultured at 37° C. and 5% CO2 for 48 hours, and then washed twice with 200 μL sodium-free buffer. 90 μL sodium-containing buffer of the test compound at different concentrations was added to the well. Each test compound was repeated in three wells for each concentration. The cells were cultured at 37° C. for 15 minutes, then 10 μL (in number 0.1 μCi [14C]) Methyl α-D-glucopyranoside was added to each well of the 96-well plate. The cells were further cultured at 37° C. for 2 hours, then the supernatant was discarded. The cells were washed twice with pre-chilled sodium-free buffer and then dissolved in 100 μL NaOH (200 mM). 100 μL scintillation solution was added, and mixed well. Scintiloscope was used for the quantitative detection of 14C.

[2] = target: T2, Sodium/glucose cotransporter 2 (Homo sapiens, UniProt P31639); experiment: Inhibitory Activity Assay
T2 sequence (P31639 whole entry): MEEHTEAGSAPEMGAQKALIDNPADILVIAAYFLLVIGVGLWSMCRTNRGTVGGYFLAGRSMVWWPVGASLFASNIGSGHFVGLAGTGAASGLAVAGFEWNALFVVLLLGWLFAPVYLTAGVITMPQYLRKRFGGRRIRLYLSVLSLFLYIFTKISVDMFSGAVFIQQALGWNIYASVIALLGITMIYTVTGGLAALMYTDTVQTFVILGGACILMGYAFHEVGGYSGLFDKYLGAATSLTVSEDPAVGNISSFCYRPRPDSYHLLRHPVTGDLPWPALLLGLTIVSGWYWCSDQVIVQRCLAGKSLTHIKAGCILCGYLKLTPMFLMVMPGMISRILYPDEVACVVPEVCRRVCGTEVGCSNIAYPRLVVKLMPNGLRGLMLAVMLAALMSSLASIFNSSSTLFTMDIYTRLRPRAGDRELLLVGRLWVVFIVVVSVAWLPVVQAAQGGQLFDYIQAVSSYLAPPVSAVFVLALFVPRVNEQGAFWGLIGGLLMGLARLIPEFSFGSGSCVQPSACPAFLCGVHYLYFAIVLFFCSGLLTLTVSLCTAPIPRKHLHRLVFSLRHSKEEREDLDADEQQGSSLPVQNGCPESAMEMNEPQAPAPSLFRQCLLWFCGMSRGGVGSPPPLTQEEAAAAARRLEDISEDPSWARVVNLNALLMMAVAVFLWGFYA
Method: as §1

OC[C@H]1S[C@@H](c2ccc(C3CC3)c(Cc3ccc4c(c3)OCCO4)c2)[C@H](O)[C@@H](O)[C@@H]1O [US10011627, 5]
IC50 [1]: 301 nM
IC50 [2]: 4.3 nM

Cc1cc(O)c([C@@H]2S[C@H](CO)[C@@H](O)[C@H](O)[C@H]2O)cc1Cc1ccc2c(c1)OCCO2 [US10011627, 6]
IC50 [1]: 99.9 nM
IC50 [2]: 2.59 nM
